Source: patent publication US6479532B1, “Antifungal compositions” (Fujisawa Pharmaceutical Co., Ltd., priority 1999, dated 2002)
Counter-ions that a name gives are not always drawn. Marks after values point to notes of the source that are not given here.

Experiments:
Type in all cases: cell-based
Trichophyton rubrum 7030 [1] = assay: Agar plate dilution assay (checker board), PY + BTF
Method: (§1) With Trichophyton spp., each strain was cultured on a Sabouraud's glucose agar (glucose 2%) slant at 25° C. for 2˜3 weeks. Then, about 3˜5 ml of physiological saline supplemented with 0.1% (w/v) Tween 80 and sterilized was added to the above slant culture of the test strain and conidia were liberated by scratching the slant surface with a platinum loop. The collected conidial suspension was filtered through a fine-mesh metal sieve to remove hyphal masses and, then, centrifuged at 3000×g for 10 minutes to concentrate the conidia. The concentrate was resuspended in the same sterile saline solution as above, the conidia were counted with a hemocytometer, and the suspension was adjusted to a predetermined conidial population (10^5 spores/ml).
(§2) Each plate was inoculated with a microbial suspension of predetermined concentration (cells or spores/ml) by the stamping method. Trichophyton spp. were cultured at 25° C. for 2 weeks and Candida spp. were cultured at 30° C. for 2 days. Then, the growth of each test strain was investigated.
(§3) The FIC index was calculated from the MIC value of PY or LC as used alone or PY and LC as used in combination.
(§4) For Trichophyton spp., the same medium as used in Test Example 1 was used.
(§5) With Trichophyton spp., the procedure of Test Example 1 was repeated.
(§6) A 1 mg/ml solution of each drug was prepared by using ethyl alcohol for PY or dimethyl sulfoxide (DMSO) for BTF and diluted to a predetermined concentration using 20% ethyl alcohol as diluent for PY or 10% DMSO as diluent for BTF.
(§7) In the case of Trichophyton spp., 0.5 ml of a PY solution and 0.5 ml of a BTF solution, both of predetermined concentration, were blended with 9 ml of the medium to prepare a drug-containing agar plate and the procedure of test Example 1 was repeated.
(§8) Calculation of the FIC index was also performed in the same manner as in Test Example 1.

Trichophyton rubrum 7005 = assay: as above
Method: as §1, §2, §3, §4, §5, §6, §7, §8

[2] = test system: Staphylococcus epidermidis 15001; assay: as above; conditions: drug alone, test strain g, 37° C., 20 hours
Method: For the general bacterium (S. epidermidis), Mueller Hinton agar medium was used. The general bacterium was cultured in Mueller Hinton broth medium at 37° C. for 20 hours and the culture was diluted 100-fold with the same medium (10^6 cells/ml) and used. A 1 mg/ml solution of each drug was prepared by using ethyl alcohol for PY or dimethyl sulfoxide (DMSO) for BTF and diluted to a predetermined concentration using 20% ethyl alcohol as diluent for PY or 10% DMSO as diluent for BTF. In the case of the general bacterium, Mueller Hinton agar medium was used to prepare plates and the procedure of Test Example 1 was repeated. After 20 hours of culture at 37° C., the growth of the test organism was investigated. Calculation of the FIC index was also performed in the same manner as in Test Example 1.

Candida albicans 12012 [3] = assay: Fungicidal effect, viable cell count after 24 h in broth
Method: Medium used: Sabouraud's (glucose 2%) broth medium
Test strain: Candida albicans 12012
Inoculum size: about 10^4 cells/ml (1% of a 24-hour culture using Sabouraud's broth medium at 30° C.)
To one part by volume of a drug solution prepared at a concentration 10 times the predetermined concentration was added 9 parts by volume of the inoculated Sabouraud's broth medium, followed by mixing. The mixture was incubated at 30° C. for 24 hours and the MIC was determined.
Furthermore, 0.1 ml samples were taken from the test microbial suspensions of varying concentrations and inoculated onto Sabouraud's (glucose 2%) agar plates using Conradi's spreader.
After 2 days of culture at 30° C., the colonies formed were counted and the number of remaining viable cells per 0.1 ml was determined.

Trichophyton rubrum 7030 [4] = assay: Agar plate dilution assay (checker board), PY + LC; conditions: Trichophyton rubrum, 7030, 336 h
Method: (§9) Sabouraud's glucose agar (glucose 2%)
as §1
(§10) Using ethyl alcohol for PY and dimethyl sulfoxide (DMSO) for LC, a 1 mg/ml solution of each drug was respectively prepared. Then, the solution was diluted to a predetermined concentration using 20% ethyl alcohol as diluent for PY and 10% DMSO as diluent for LC.
(§11) For the determination of inhibitory activity, 0.5 ml of a PY solution and 0.5 ml of an LC solution, each adjusted to a predetermined concentration were blended with 9 ml of Sabouraud's glucose agar medium to prepare drug-containing plates (checker board method).
as §2, §3

Trichophyton rubrum 7010 [5] = assay: Agar plate dilution assay (checker board), PY + LC; conditions: Trichophyton rubrum, 7010, 336 h
Method: as §9, §1, §10, §11, §2, §3

Candida albicans YU-1200 = assay: Agar plate dilution assay (checker board), PY + LC; conditions: YU1200, 48 h, drug alone, test strain a, 30° C., 2 days
Method: (§12) Sabouraud's glucose agar (glucose 2%) Candida albicans was cultured in Sabouraud's broth medium (glucose 2%) at30° C. for 24 hours and the resulting culture was diluted 10-fold with the same medium as above (10^5 cells/ml) and used. Using ethyl alcohol for PY and dimethyl sulfoxide (DMSO) for LC, a 1 mg/ml solution of each drug was respectively prepared. Then, the solution was diluted to a predetermined concentration using 20% ethyl alcohol as diluent for PY and 10% DMSO as diluent for LC. For the determination of inhibitory activity, 0.5 ml of a PY solution and 0.5 ml of an LC solution, each adjusted to a predetermined concentration were blended with 9 ml of Sabouraud's glucose agar medium to prepare drug-containing plates (checker board method). Each plate was inoculated with a microbial suspension of predetermined concentration (cells or spores/ml) by the stamping method. Trichophyton spp. were cultured at 25° C. for 2 weeks and Candida spp. were cultured at 30° C. for 2 days. Then, the growth of each test strain was investigated. The FIC index was calculated from the MIC value of PY or LC as used alone or PY and LC as used in combination.

Candida albicans 12012 [6] = assay: Agar plate dilution assay (checker board), PY + LC; conditions: 48 h, drug alone, test strain b, 30° C., 2 days
Method: as §12

Trichophyton rubrum 7030 [7] = assay: Agar plate dilution assay (checker board), PY + TF
Method: (§13) Mueller Hinton agar medium was used for Staphylococcus spp. and Sabouraud's glucose agar (glucose 2%) medium was used for the fungi.
as §1
(§14) A 1 mg/ml solution of each drug was prepared using ethyl alcohol for PY or dimethyl sulfoxide (DMSO) for TF and diluted to a predetermined concentration by using 20% ethyl alcohol as diluent for PY or 10% DMSO as diluent for TF.
(§15) For the determination of the growth-inhibitory effects of drugs on test organisms, drug-containing plates were prepared by blending 0.5 ml of a PY solution and 0.5 ml of a TF solution, both of predetermined concentration, with 9 ml of said medium.
(§16) The plates were inoculated with the microbial suspensions (cells or spores/ml) by the stamping technique. Trichophyton spp. were cultured at 25° C. for 2 weeks, Candida spp. at 30° C. for 2 days, and Staphylococcus spp. at 37° C. for 20 hours. Then, the growth of each test organism was investigated (checker board method).
(§17) The FIC index was calculated from the MIC value of PY or TF alone or the two drugs used in combination.

Trichophyton rubrum 7010 [8] = assay: Agar plate dilution assay (checker board), PY + TF
Method: as §13, §1, §14, §15, §16, §17

Candida albicans 16010 = assay: Agar plate dilution assay (checker board), PY + TF; conditions: 48 h, drug alone, test organism h, 30° C., 2 days
Method: Mueller Hinton agar medium was used for Staphylococcus spp. and Sabouraud's glucose agar (glucose 2%) medium was used for the fungi. Candida albicans was cultured in Sabouraud's broth medium (glucose 2%) at 30° C. for 24 hours and the culture was diluted 10-fold (10^5 cells/ml) with the same medium and used. A 1 mg/ml solution of each drug was prepared using ethyl alcohol for PY or dimethyl sulfoxide (DMSO) for TF and diluted to a predetermined concentration by using 20% ethyl alcohol as diluent for PY or 10% DMSO as diluent for TF. For the determination of the growth-inhibitory effects of drugs on test organisms, drug-containing plates were prepared by blending 0.5 ml of a PY solution and 0.5 ml of a TF solution, both of predetermined concentration, with 9 ml of said medium. The plates were inoculated with the microbial suspensions (cells or spores/ml) by the stamping technique. Trichophyton spp. were cultured at 25° C. for 2 weeks, Candida spp. at 30° C. for 2 days, and Staphylococcus spp. at 37° C. for 20 hours. Then, the growth of each test organism was investigated (checker board method). The FIC index was calculated from the MIC value of PY or TF alone or the two drugs used in combination.

[9] = test system: Staphylococcus epidermidis 15001; assay: Agar plate dilution assay (checker board), PY + TF; conditions: drug alone, test organism l, 37° C., 20 hours
Method: (§18) Mueller Hinton agar medium was used for Staphylococcus spp. and Sabouraud's glucose agar (glucose 2%) medium was used for the fungi. Staphylococcus spp. were cultured in Mueller Hinton broth medium at 37° C. for 18˜20 hours and diluted 100-fold with the same medium (about 10^6 cells/ml) and this dilution was used as the inoculum. A 1 mg/ml solution of each drug was prepared using ethyl alcohol for PY or dimethyl sulfoxide (DMSO) for TF and diluted to a predetermined concentration by using 20% ethyl alcohol as diluent for PY or 10% DMSO as diluent for TF. For the determination of the growth-inhibitory effects of drugs on test organisms, drug-containing plates were prepared by blending 0.5 ml of a PY solution and 0.5 ml of a TF solution, both of predetermined concentration, with 9 ml of said medium. The plates were inoculated with the microbial suspensions (cells or spores/ml) by the stamping technique. Trichophyton spp. were cultured at 25° C. for 2 weeks, Candida spp. at 30° C. for 2 days, and Staphylococcus spp. at 37° C. for 20 hours. Then, the growth of each test organism was investigated (checker board method). The FIC index was calculated from the MIC value of PY or TF alone or the two drugs used in combination.

[10] = test system: Staphylococcus aureus FP5; assay: Agar plate dilution assay (checker board), PY + TF; conditions: drug alone, test organism k, 37° C., 20 hours
Method: as §18

[11] = drug concentration 3.13 μg/ml, class symbol
[12] = drug concentration 6.25 μg/ml, class symbol

Row | Compound | MIC (Trichophyton rubrum 7030 [1]) [µg/mL] | MIC (Trichophyton rubrum 7005) [µg/mL] | MIC [2] [µg/mL] | Viable cell count (Candida albicans 12012 [3]; [11]) | Viable cell count (Candida albicans 12012 [3]; [12]) | Viable cell count (Candida albicans 12012 [3]; drug concentration 12.5 μg/ml) [CFU/0.1 ml] | Viable cell count (Candida albicans 12012 [3]; drug concentration 25 μg/ml) [CFU/0.1 ml] | MIC (Trichophyton rubrum 7030 [4]) [µg/mL] | MIC (Trichophyton rubrum 7010 [5]) [µg/mL] | MIC (Candida albicans YU-1200) [µg/mL] | MIC (Candida albicans 12012 [6]) [µg/mL] | MIC (Trichophyton rubrum 7030 [7]; Trichophyton rubrum, 7030, 336 h) [µg/mL] | MIC (Trichophyton rubrum 7010 [8]; Trichophyton rubrum, 7010, 336 h) [µg/mL] | MIC (Candida albicans 16010) [µg/mL] | MIC [9] [µg/mL] | MIC [10] [µg/mL] | MIC (Trichophyton rubrum 7030 [7]; 336 h, drug alone, test organism j, Trichophyton rubrum 7030, 25° C., 2 weeks, read-out: MIC) [µg/mL] | MIC (Trichophyton rubrum 7010 [8]; 336 h, drug alone, test organism i, Trichophyton rubrum 7010, 25° C., 2 weeks, read-out: MIC) [µg/mL]
1 | CN(Cc1ccc(C(C)(C)C)cc1)Cc1cccc2ccccc12 [BTF, Butenafine Hydrochloride] | 0.025 | 0.025 | 25 |  |  |  |  |  |  |  |  |  |  |  |  |  |  | 
2 | N#C/C(=C1/SCC(c2ccccc2Cl)S1)n1ccnc1 (centres unmarked) [LC, Lanoconazole] |  |  |  | ∞ (∞: 10^3˜10^4) | ∞ (∞: 10^3˜10^4) | 876 | 308 | 0.0125 | 0.025 | 12.5 | 25 |  |  |  |  |  |  | 
3 | O=[N+]([O-])c1c(Cl)cccc1-c1c[nH]cc1Cl [PY, Pyrrolnitrin] | 0.1 | 0.1 | 25 |  |  |  |  | 0.2 | 0.2 | 12.5 | 25 | 0.39 | 0.2 | 25 | 12.5 | 25 |  | 
4 | CN(C/C=C/C#CC(C)(C)C)Cc1cccc2ccccc12 [TF, Terbinafine Hydrochloride] |  |  |  |  |  |  |  |  |  |  |  |  |  | 50 | 25 | 50 | 0.0125 | 0.0125
5 | Pyrrolnitrin |  |  |  | ∞ (∞: 10^3˜10^4) | ∞ (∞: 10^3˜10^4) | 1012 | 1 |  |  |  |  |  |  |  |  |  |  | 
